What was measured:
RARγ [1] = biological target: T1, RARγ (Homo sapiens, UniProt P13631); assay: RAR binding, RARγ; conditions: Kd from IC50 by Cheng-Prussof equation
T1 sequence (P13631 1-454): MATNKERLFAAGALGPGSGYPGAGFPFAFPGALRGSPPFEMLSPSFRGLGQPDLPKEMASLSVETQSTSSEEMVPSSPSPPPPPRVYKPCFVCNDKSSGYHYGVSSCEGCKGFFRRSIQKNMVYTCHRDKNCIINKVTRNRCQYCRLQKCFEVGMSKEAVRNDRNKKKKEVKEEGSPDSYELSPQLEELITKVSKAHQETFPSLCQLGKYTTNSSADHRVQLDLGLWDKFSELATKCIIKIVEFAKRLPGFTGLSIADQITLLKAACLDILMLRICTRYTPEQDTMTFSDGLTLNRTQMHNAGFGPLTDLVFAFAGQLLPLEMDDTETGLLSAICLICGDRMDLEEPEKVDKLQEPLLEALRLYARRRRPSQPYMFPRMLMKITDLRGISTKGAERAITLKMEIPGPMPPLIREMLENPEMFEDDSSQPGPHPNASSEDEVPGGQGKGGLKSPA
Protocol: Non-specific binding was defined as that binding remaining in the presence of 500 nM of the appropriate unlabelled compound. At the end of the incubation period, bound from free ligand were separated. The amount of bound tritiated retinoids was determined by liquid scintillation counting of an aliquot (700 μL) of the supernatant fluid or the hydroxylapatite pellet.
After correcting for non-specific binding, IC50 values were determined. […] The IC50 value was determined graphically from a log-logit plot of the data. The Kd values were determined by application of the Cheng-Prussof equation to the IC50 values, the labeled ligand concentration and the Kd of the labeled ligand.

RARα = biological target: T2, RARα (Homo sapiens, UniProt P10276); assay: co-transfection assay, antagonist activity on RARα; type: cell-based; design: expressed in transfected cells; host or cells: CV-1 cells (African green monkey kidney); conditions: CV-1 cells, in presence of known RAR agonist TTNPB; for IC50: read-out: IC50 antagonist potency, RARα
T2 sequence (P10276 1-462): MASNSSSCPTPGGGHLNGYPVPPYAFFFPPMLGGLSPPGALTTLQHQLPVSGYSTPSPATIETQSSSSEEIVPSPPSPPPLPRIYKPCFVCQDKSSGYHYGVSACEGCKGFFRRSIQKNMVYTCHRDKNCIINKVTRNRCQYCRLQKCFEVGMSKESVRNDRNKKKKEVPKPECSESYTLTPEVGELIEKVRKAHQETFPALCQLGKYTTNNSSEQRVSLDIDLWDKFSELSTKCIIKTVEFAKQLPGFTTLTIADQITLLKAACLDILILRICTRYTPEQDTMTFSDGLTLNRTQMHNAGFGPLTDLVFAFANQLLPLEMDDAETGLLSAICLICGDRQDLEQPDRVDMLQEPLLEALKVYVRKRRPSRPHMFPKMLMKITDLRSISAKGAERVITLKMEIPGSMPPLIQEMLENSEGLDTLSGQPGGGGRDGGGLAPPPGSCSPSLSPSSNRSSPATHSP
Description: (§1) This assay is described in further detail in U.S. Pat. Nos. 4,981,784 and 5,071,773, the disclosures of which are incorporated herein by reference.
(§2) In the co-transfection assay, a cloned cDNA for an IR (e.g., human RARα:, RARβ, RXRγ) under the control of a constitutive promoter (e.g., the SV 40 promoter) is introduced by transfection (a procedure to induce cells to take up foreign genes) into a background cell substantially devoid of endogenous IRs. This introduced gene directs the recipient cells to make the IR protein of interest. A second gene is also introduced (co-transfected) into the same cells in conjunction with the IR gene. This second gene, comprising the cDNA for a reporter protein, such as firefly luciferase (LUC), is controlled by an appropriate hormone responsive promoter containing a hormone response element (HRE). This reporter plasmid functions as a reporter for the transcription-modulating activity of the target IR. Thus, the reporter acts as a surrogate for the products (mRNA then protein) normally expressed by a gene under control of the target receptor and its native hormone.
(§3) The co-transfection assay can detect small molecule agonists or antagonists of target IRs. Exposing the transfected cells to an agonist ligand compound increases reporter activity in the transfected cells. This activity can be conveniently measured, e.g., by increasing luciferase production, which reflects compound-dependent, IR-mediated increases in reporter transcription. To detect antagonists, the co-transfection assay is carried out in the presence of a constant concentration of an agonist to the target IR (e.g., all-trans retinoic acid for RARα) known to induce a defined reporter signal. Increasing concentrations of a suspected antagonist will decrease the reporter signal (e.g., luciferase production). The co-transfection assay is therefore useful to detect both agonists and antagonists of specific IRs. Furthermore, it determines not only whether a compound interacts with a particular IR, but whether this interaction mimics (agonizes) or blocks (antagonizes) the effects of the native regulatory molecules on target gene expression, as well as the specificity and strength of this interaction.
(§4) CV-1 cells (African green monkey kidney fibroblasts) were cultured in the presence of Dulbecco's Modified Eagle Medium (DMEM) supplemented with 10% charcoal resin-stripped fetal bovine serum then transferred to 96-well microtiter plates one day prior to transfection.
(§5) To determine RAR and/or RXR agonist activity of the compounds of the present invention, the CV-1 cells were transiently transfected by calcium phosphate coprecipitation according to the procedure of Berger et al., 41 J. Steroid Biochem. Mol. Biol., 733 (1992) with the following receptor expressing plasmids: pRShRARα: Giguere et al., 330 Nature, 624 (1987); pRShRARβ and pRShRARγ, Ishikawa et al., 4 Mol. Endocrin., 837 (1990); pRShRXRα, Mangelsdorf et al., 345 Nature, 224 (1990); and pRSmRXRβ and pRSmRXRγ, Mangelsdorf et al., 6 Genes & Devel., 329 (1992), the disclosures of which are herein incorporated by reference. Each of these receptor expressing plasmids was co-transfected at a concentration of 5 ng/well, along with a basal reporter plasmid at 100 ng/well, the internal control plasmid pRS-β-Gal at 50 ng/well and filler DNA, pGEM at 45 ng/well.
(§6) The basal reporter plasmid D-MTV-LUC (Hollenberg and Evans, 55 Cell, 899 (1988), the disclosure of which is herein incorporated by reference) containing two copies of the TRE-palindromic response element described in Umesono et al., 336 Nature, 262 (1988), the disclosure of which is herein incorporated by reference, was used in transfections for the RARs, and the reporter plasmid CRBPIIFKLUC, which contains an RXRE (retinoid X receptor response element, as described in Mangelsdorf et al., 66 Cell, 555 (1991), the disclosure of which is herein incorporated by reference), was used in transfections for the RXRs.

RARγ [2] = biological target: T1, RARγ; assay: co-transfection assay, antagonist activity on RARγ; type: cell-based; design: expressed in transfected cells; host or cells: CV-1 cells (African green monkey kidney); conditions: CV-1 cells, in presence of known RAR agonist TTNPB; for IC50: read-out: IC50 antagonist potency, RARγ
Description: as §1, §2, §3, §4, §5, §6

For `CCCCOc1c(C(C)(C)C)cc(/C(C)=C/C=C/C(C)=C/C(=O)O)cc1C(C)(C)C` [Compound 7, 2E, 4E, 6E-[7-(3,5-Di-t-butyl-4-n-butoxyphenyl)-3-methyl]-octa-2,4,6-trienoic acid], the Kd (RARγ [1]) was 17 nM, the “efficacy of antagonist, % of maximal inhibition, RARα (in parentheses after IC50)” value (RARα) was 90% and the IC50 (RARα) was 4 nM. The “efficacy of antagonist, % of maximal inhibition, RARγ (in parentheses after IC50)” value (RARγ [2]) was 91% and the IC50 (RARγ [2]) was 2 nM.

With `CCCCCOc1c(C(C)(C)C)cc(/C(C)=C/C=C/C(C)=C/C(=O)O)cc1C(C)(C)C` [Compound 9, 2E, 4E, 6E-[7-(3,5-Di-t-butyl-4-n-pentoxyphenyl)-3-methyl]-octa-2,4,6-trienoic acid] the Kd (RARγ [1]) was 14 nM, the “efficacy of antagonist, % of maximal inhibition, RARα (in parentheses after IC50)” value (RARα) was 91% and the IC50 (RARα) was 5 nM. For the same compound, the “efficacy of antagonist, % of maximal inhibition, RARγ (in parentheses after IC50)” value (RARγ [2]) was 80% and the IC50 (RARγ [2]) was 5 nM.

With `CCCOc1c(C(C)(C)C)cc(/C(C)=C/C=C/C(C)=C/C(=O)O)cc1C(C)(C)C` [Compound 8, 2E, 4E, 6E-[7-(3,5-Di-t-butyl-4-n-propoxyphenyl)-3-methyl]-octa-2,4,6-trienoic acid] the Kd (RARγ [1]) was 4 nM, the “efficacy of antagonist, % of maximal inhibition, RARα (in parentheses after IC50)” value (RARα) was 90% and the IC50 (RARα) was 2 nM. The “efficacy of antagonist, % of maximal inhibition, RARγ (in parentheses after IC50)” value (RARγ [2]) was 85% and the IC50 (RARγ [2]) was 3 nM.

In the case of `C=C(c1ccccc1)c1cc(/C(C)=C/C=C/C(C)=C/C(=O)O)cc(C(C)(C)C)c1` [Compound 17, (2E,4E,6E)-7-[3-t-butyl-5-(1-phenyl-vinyl)-phenyl]-3-methyl-octa-2,4,6-trienoic acid], the Kd (RARγ [1]) is reported as 14 nM, the “efficacy of antagonist, % of maximal inhibition, RARα (in parentheses after IC50)” value (RARα) is reported as 98% and the IC50 (RARα) is reported as 2 nM. The “efficacy of antagonist, % of maximal inhibition, RARγ (in parentheses after IC50)” value (RARγ [2]) was 85% and the IC50 (RARγ [2]) was 2 nM.

Source: patent publication US5998654A, “Retinoic acid receptor antagonist compounds and methods” (Ligand Pharmaceuticals Incorporated, priority 1997, dated 1999)
